# Molecular target: HIS-TGFβR1 T204D (Homo sapiens (Human), UniProt P36897, T204D)
# Experiment: TGFβR1 HIS T204D HTRF assay (labeled small molecule probe, anti-HIS detection antibody)
# Assay type: binding
# Details: 1 nM HIS-TGFβR1 T204D, probe at Kd, 1 hour at room temperature, eleven concentrations
# Sequence of HIS-TGFβR1 T204D (P36897 34-503 T204D): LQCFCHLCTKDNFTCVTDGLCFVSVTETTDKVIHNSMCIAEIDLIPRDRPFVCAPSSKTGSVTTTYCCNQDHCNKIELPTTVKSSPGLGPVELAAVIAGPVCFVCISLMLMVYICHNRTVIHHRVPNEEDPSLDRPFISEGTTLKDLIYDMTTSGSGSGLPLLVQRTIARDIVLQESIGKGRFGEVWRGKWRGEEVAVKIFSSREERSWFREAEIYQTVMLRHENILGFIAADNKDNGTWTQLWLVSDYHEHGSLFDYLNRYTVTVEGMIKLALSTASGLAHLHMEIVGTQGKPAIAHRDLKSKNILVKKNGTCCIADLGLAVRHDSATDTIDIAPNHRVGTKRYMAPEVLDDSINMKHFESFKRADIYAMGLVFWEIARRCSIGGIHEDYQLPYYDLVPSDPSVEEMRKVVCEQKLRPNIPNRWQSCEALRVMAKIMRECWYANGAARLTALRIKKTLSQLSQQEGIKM
row,Structure (SMILES),IC50
1,"CC(=O)Nc1cc(Nc2nc(-c3cccc(C(F)F)n3)nc3[nH]cc(CNCC(C)(C)O)c23)c(F)cn1 [Example 44, N-[4-({2-[6-(difluoromethyl)pyridin-2-yl]-5-{[(2-hydroxy-2-methylpropyl)amino]methyl}-7H-pyrrolo[2,3-d]pyrimidin-4-yl}amino)-5-fluoropyridin-2-yl]acetamide]",2.6 nM
2,"CN1CCN(Cc2c[nH]c3nc(-c4cccc(C(F)F)n4)nc(Nc4ccncc4F)c23)CC1 [Example 7, 2-(6-(difluoromethyl)pyridin-2-yl)-N-(3-fluoropyridin-4-yl)-5-((4-methylpiperazin-1-yl)methyl)-7H-pyrrolo[2,3-d]pyrimidin-4-amine]",3.7 nM
3,"CC(=O)Nc1cc(Nc2nc(-c3ccc(F)c(C)n3)nc3[nH]ccc23)ccn1 [Example 29, N-(4-((2-(5-fluoro-6-methylpyridin-2-yl)-7H-pyrrolo[2,3-d]pyrimidin-4-yl)amino)pyridin-2-yl)acetamide]",0.77 nM
4,"Cc1c[nH]c2nc(-c3cccc(C(F)F)n3)nc(Nc3ccncc3F)c12 [Example 6, 2-(6-(difluoromethyl)pyridin-2-yl)-N-(3-fluoropyridin-4-yl)-5-methyl-7H-pyrrolo[2,3-d]pyrimidin-4-amine]",0.76 nM
5,"CN(c1ccncc1)c1nc(-c2cccc(NS(C)(=O)=O)n2)nc2[nH]ccc12 [Example 48, N-(6-{4-[methyl(pyridin-4-yl)amino]-7H-pyrrolo[2,3-d]pyrimidin-2-yl}pyridin-2-yl)methanesulfonamide]",4.3 nM
6,"Cc1nc(-c2nc(Nc3ccnc(NC(=O)C4CC4)c3)c3cc[nH]c3n2)ccc1F [Example 47, N-(4-{[2-(5-fluoro-6-methylpyridin-2-yl)-7H-pyrrolo[2,3-d]pyrimidin-4-yl]amino}pyridin-2-yl)cyclopropanecarboxamide]",1.4 nM

# More lines, now with the values ahead:
row,IC50,Structure (SMILES)
1,2.7 nM,"CC(C)(C)CC(=O)Nc1cc(Nc2nc(-c3cccc(C(F)(F)F)n3)nc3[nH]ccc23)ccn1 [Example 26, 3,3-dimethyl-N-(4-((2-(6-(trifluoromethyl)pyridin-2-yl)-7H-pyrrolo[2,3-d]pyrimidin-4-yl)amino)pyridin-2-yl)butanamide]"
2,4.7 nM,"CC(=O)Nc1cc(Nc2nc(-c3ccc(C(F)(F)F)cn3)nc3[nH]ccc23)ccn1 [Example 23, N-(4-((2-(5-(trifluoromethyl)pyridin-2-yl)-7H-pyrrolo[2,3-d]pyrimidin-4-yl)amino)pyridin-2-yl)acetamide]"
3,0.26 nM,"Fc1cnccc1Nc1nc(-c2ccccn2)nc2[nH]ccc12 [Example 8, N-(3-fluoropyridin-4-yl)-2-(pyridin-2-yl)-7H-pyrrolo[2,3-d]pyrimidin-4-amine]"
4,0.64 nM,"FC(F)(F)c1cccc(-c2nc(Nc3ccncc3C(F)(F)F)c3cc[nH]c3n2)n1 [Example 39, 3-(trifluoromethyl)-N-{2-[6-(trifluoromethyl)pyridin-2-yl]-7H-pyrrolo[2,3-d]pyrimidin-4-yl}pyridin-4-amine]"
5,1.7 nM,"COc1cnccc1Nc1nc(-c2cccc(C(F)(F)F)n2)nc2[nH]ccc12 [Example 42, 3-methoxy-N-{2-[6-(trifluoromethyl)pyridin-2-yl]-7H-pyrrolo[2,3-d]pyrimidin-4-yl}pyridin-4-amine]"
6,0.87 nM,"O=C(Nc1cc(Nc2nc(-c3cccc(C(F)(F)F)n3)nc3[nH]ccc23)ccn1)C1CC1 [Example 41, N-[4-({2-[6-(trifluoromethyl)pyridin-2-yl]-7H-pyrrolo[2,3-d]pyrimidin-4-yl}amino)pyridin-2-yl]cyclopropanecarboxamide]"
7,0.79 nM,"COc1cnccc1Nc1nc(-c2ccc(F)c(C)n2)nc2[nH]ccc12 [Example 46, N-[2-(5-fluoro-6-methylpyridin-2-yl)-7H-pyrrolo[2,3-d]pyrimidin-4-yl]-3-methoxypyridin-4-amine]"
8,0.74 nM,"CCC(=O)Nc1cc(Nc2nc(-c3cccc(C(F)(F)F)n3)nc3[nH]ccc23)ccn1 [Example 24, N-(4-((2-(6-(trifluoromethyl)pyridin-2-yl)-7H-pyrrolo[2,3-d]pyrimidin-4-yl)amino)pyridin-2-yl)propionamide]"

# Reference: patent publication US10399987B2, “TGF beta receptor antagonists” (BRISTOL-MYERS SQUIBB COMPANY, priority 2015, dated 2019)
